9 compounds from DBAASP can be followed below.

In general, MIC refers to the smallest concentration in the dilution series that meets the test's criterion for growth inhibition. Read a high MIC as a need for much substance.

≈ marks a conversion by molar mass, not a printed value.

What all share (assay): ≥ marks a high value that may be exact or a test limit, other limits are often not marked, values filed in µg/mL are converted to µM
For assay [1], the system named is Bacillus subtilis KCTC 1918.
Assay [2] has as its system Candida albicans KCTC 7270.
In assay [3] the test system is Escherichia coli ATCC 25922.
Assay [4] concerns Escherichia coli KCTC 1682.
In assay [5] the test system is Proteus vulgaris KCTC 2433.
In assay [6] the test system is Pseudomonas aeruginosa ATCC 15692.
Assay [7] has as its system Pseudomonas aeruginosa KCTC 1637.
For assay [8], the system named is Saccharomyces cerevisiae KCTC 7296.
Assay [9] relates to Salmonella typhimurium KCTC 1926.
The test system of assay [10] is Staphylococcus aureus ATCC 25923.
For assay [11], the system named is Staphylococcus aureus KCTC 1621.
The test system of assay [12] is Staphylococcus epidermidis KCTC 1917.
The test system of assay [13] is Trichosporon beigelii KCTC 7707.
Assay [14] has as its system Botrytis cinerea.
Assay [15] has as its system Candida albicans ATCC 10231.
For assay [16], the system named is Escherichia coli ATCC 11775.
Assay [17] concerns Staphylococcus aureus ATCC 12600.
Assay [18] relates to Micrococcus luteus ATCC 9341.
Assay [19] concerns Bacillus subtilis ATCC 6633.
Assay [20] has as its system Corynebacterium xerosis C875.
The test system of assay [21] is Enterococcus faecalis ATCC 29212.
Assay [22] relates to Escherichia coli DC2.
For assay [23], the system named is Escherichia coli UB1005.
The subject of assay [24] is Pseudomonas aeruginosa ATCC 27853.
Assay [25] has as its system Staphylococcus epidermidis C621.
Assay [26] deals with Escherichia coli BW25113.

On to `CC[C@H](C)[C@H](NC(=O)[C@H](CCCCN)NC(=O)[C@H](CO)NC(=O)[C@H](Cc1ccccc1)NC(=O)[C@H](CC(C)C)NC(=O)[C@H](CCCCN)NC(=O)[C@@H]1CCCN1C(=O)[C@H](CC(C)C)NC(=O)[C@H](CCCN=C(N)N)NC(=O)[C@H](CCCCN)NC(=O)[C@H](Cc1ccccc1)NC(=O)[C@@H](NC(=O)[C@H](CCCCN)NC(=O)[C@H](CCCCN)NC(=O)[C@H](C)N)C(C)C)C(=O)N[C@@H](Cc1c[nH]c2ccccc12)C(=O)N[C@@H](CC(N)=O)C(=O)N[C@@H](Cc1c[nH]c2ccccc12)C(=O)N[C@@H](CCCCN)C(N)=O` [AKKVFKRLPKLFSKIWNWK], for which the MIC in [1] stood at 0.39 µM (≈ 0.943 µg/mL); in assay [2], 3.13 µM (≈ 7.57 µg/mL); in assay [3], 2 µM (≈ 4.83 µg/mL); in [4] it was 0.19 µM (≈ 0.459 µg/mL); in assay [5], 0.09 µM (≈ 0.218 µg/mL); in assay [6], 2 µM (≈ 4.83 µg/mL). In addition, the MIC in assay [7] is 1.56 µM (≈ 3.77 µg/mL); in assay [8], 1.56 µM (≈ 3.77 µg/mL); in [9], 0.09 µM (≈ 0.218 µg/mL); in assay [10], 4 µM (≈ 9.67 µg/mL); in assay [11], 0.39 µM (≈ 0.943 µg/mL); in assay [12] it was 0.39 µM (≈ 0.943 µg/mL). This compound also registered an MIC in assay [13] of 1.56 µM (≈ 3.77 µg/mL).

On to `CC(C)C[C@H](NC(=O)[C@H](C)NC(=O)[C@H](CO)NC(=O)[C@@H](NC(=O)[C@@H](NC(=O)[C@H](CO)NC(=O)[C@H](CCCCN)NC(=O)[C@@H](NC(=O)[C@H](CC(C)C)NC(=O)CNC(=O)[C@H](CC(C)C)NC(=O)[C@H](CC(C)C)NC(=O)[C@H](CC(=O)O)NC(=O)[C@@H](N)Cc1ccccc1)C(C)C)C(C)C)C(C)C)C(N)=O` [FDLLGLVKSVVSAL], for which the MIC in assay [14] was 5 µM (≈ 7.3 µg/mL); in [15], 100 µM (≈ 146 µg/mL); in [16] it was at least 200 µM; in assay [17], 25 µM (≈ 36.5 µg/mL).

Turning to `CC[C@H](C)[C@H](N)C(=O)N[C@@H](C)C(=O)N1CCC[C@H]1C(=O)N[C@@H](Cc1c[nH]c2ccccc12)C(=O)N[C@@H](CCCCN)C(=O)N[C@@H](Cc1c[nH]c2ccccc12)C(=O)N1CCC[C@H]1C(=O)N[C@@H](Cc1c[nH]c2ccccc12)C(=O)N[C@@H](Cc1c[nH]c2ccccc12)C(=O)N1CCC[C@H]1C(=O)N[C@@H](Cc1c[nH]c2ccccc12)C(=O)N[C@@H](CCCN=C(N)N)C(=O)N[C@@H](CCCN=C(N)N)C(N)=O` [IAPWKWPWWPWRR], in [18], the MIC was 0.4 µM (≈ 0.746 µg/mL).

Regarding `C[C@H](NC(=O)[C@H](C)NC(=O)[C@H](C)NC(=O)[C@H](Cc1ccccc1)NC(=O)[C@H](C)NC(=O)[C@H](C)NC(=O)[C@H](C)NC(=O)[C@H](CCCCN)NC(=O)[C@@H](N)CCCCN)C(=O)N[C@@H](C)C(=O)N[C@@H](C)C(=O)N[C@@H](Cc1ccccc1)C(=O)N[C@@H](C)C(=O)N[C@@H](C)C(=O)N[C@@H](Cc1c[nH]c2ccccc12)C(=O)N[C@@H](C)C(=O)N[C@@H](C)C(=O)N[C@@H](Cc1ccccc1)C(=O)N[C@@H](C)C(=O)N[C@@H](C)C(=O)N[C@@H](C)C(=O)N[C@@H](CCCCN)C(=O)N[C@@H](CCCCN)C(=O)N[C@@H](CCCCN)C(=O)N[C@@H](CCCCN)C(N)=O` [KKAAAFAAAAAFAAWAAFAAAKKKK], the MIC in [19] is 1 µM (≈ 2.48 µg/mL); in assay [20] it was 0.25 µM (≈ 0.62 µg/mL); in [21], above 32 µM; in [3], above 32 µM; in assay [22], 4 µM (≈ 9.92 µg/mL); in assay [23], 16 µM (≈ 39.7 µg/mL). Further, the MIC in [24] is 8 µM (≈ 19.8 µg/mL); in [10] it was above 32 µM; in assay [25], 2 µM (≈ 4.96 µg/mL).

With `C[C@H](NC(=O)[C@H](C)NC(=O)[C@H](C)NC(=O)[C@H](Cc1ccccc1)NC(=O)[C@H](C)NC(=O)[C@H](CCCCN)NC(=O)[C@@H](N)CCCCN)C(=O)N[C@@H](C)C(=O)N[C@@H](C)C(=O)N[C@@H](Cc1ccccc1)C(=O)N[C@@H](C)C(=O)N[C@@H](C)C(=O)N[C@@H](Cc1c[nH]c2ccccc12)C(=O)N[C@@H](C)C(=O)N[C@@H](C)C(=O)N[C@@H](Cc1ccccc1)C(=O)N[C@@H](C)C(=O)N[C@@H](CCCCN)C(=O)N[C@@H](CCCCN)C(=O)N[C@@H](CCCCN)C(=O)N[C@@H](CCCCN)C(N)=O` [KKAFAAAAAFAAWAAFAKKKK], the MIC in assay [19] is 2 µM (≈ 4.39 µg/mL); in assay [20] it was 0.5 µM (≈ 1.1 µg/mL); in assay [21], above 32 µM; in [3], 32 µM (≈ 70.3 µg/mL); in [22] it was 4 µM (≈ 8.78 µg/mL); in assay [23] it was 8 µM (≈ 17.6 µg/mL). The MIC is above 32 µM in assay [24], above 32 µM in assay [10] and 8 µM (≈ 17.6 µg/mL) in [25].

In the case of `CSCC[C@H](NC(=O)[C@H](C)NC(=O)[C@H](C)NC(=O)[C@@H]1CCCN1C(=O)[C@H](CO)NC(=O)[C@@H](N)CC(C)C)C(=O)N[C@@H](C)C(=O)N[C@@H](CO)C(=O)N[C@@H](CC(C)C)C(=O)N[C@@H](C)C(N)=O` [LSPAAMASLA], the MIC in assay [14] is at least 200 µM; in assay [15], above 200 µM; in assay [16], at least 200 µM; in assay [17], at least 200 µM.

In assay [26], `CC(C)C[C@H](NC(=O)[C@H](Cc1ccc(O)cc1)NC(=O)[C@@H]1CCCN1)C(=O)N1CCC[C@H]1C(=O)N[C@@H](CCCN=C(N)N)C(=O)N1CCC[C@H]1C(=O)NCC(=O)N[C@@H](CCCN=C(N)N)C(=O)N[C@@H](CCCN=C(N)N)C(=O)N1CCC[C@H]1C(=O)N[C@@H](CCCN=C(N)N)C(=O)N[C@@H](Cc1ccccc1)C(=O)N1CCC[C@H]1C(=O)N1CCC[C@H]1C(=O)N1CCC[C@H]1C(=O)N[C@@H](Cc1ccccc1)C(=O)N1CCC[C@H]1C(=O)O` [PYLPRPGRRPRFPPPFP] displayed an MIC of at least 64 µM.

Take `CC[C@H](C)[C@H](NC(=O)[C@@H]1CCCN1C(=O)[C@@H]1CCCN1C(=O)[C@H](CCCN=C(N)N)NC(=O)[C@H](Cc1ccccc1)NC(=O)[C@@H](N)CCCN=C(N)N)C(=O)N[C@@H](CCCN=C(N)N)C(=O)N[C@@H](CCCN=C(N)N)C(=O)N1CCC[C@H]1C(=O)N1CCC[C@H]1C(=O)N[C@H](C(=O)N[C@@H](CCCN=C(N)N)C(=O)N1CCC[C@H]1C(=O)N1CCC[C@H]1C(=O)N[C@@H](Cc1ccccc1)C(=O)N[C@@H](Cc1c[nH]c2ccccc12)C(=O)N1CCC[C@H]1C(=O)O)[C@@H](C)CC` [RFRPPIRRPPIRPPFWP]: in assay [26], the MIC came out at 16 µM (≈ 35 µg/mL).

In turn, `CC[C@H](C)[C@H](NC(=O)[C@@H]1CCCN1C(=O)[C@@H]1CCCN1C(=O)[C@H](CCCN=C(N)N)NC(=O)[C@H](Cc1c[nH]c2ccccc12)NC(=O)[C@@H](N)CCCN=C(N)N)C(=O)N[C@@H](CCCN=C(N)N)C(=O)N[C@@H](CCCN=C(N)N)C(=O)N1CCC[C@H]1C(=O)N1CCC[C@H]1C(=O)N[C@H](C(=O)N[C@@H](CCCN=C(N)N)C(=O)N1CCC[C@H]1C(=O)N1CCC[C@H]1C(=O)N[C@@H](Cc1c[nH]c2ccccc12)C(=O)N[C@@H](Cc1ccc(O)cc1)C(=O)N1CCC[C@H]1C(=O)O)[C@@H](C)CC` [RWRPPIRRPPIRPPWYP] yielded an MIC in assay [26] of 16 µM (≈ 35.9 µg/mL).
